Our source for the IC50 values is patent US20080085893A1, “MATRIX METALLOPROTEASE INHIBITORS” (priority 2006, published 2008).

Holding throughout (type): biochemical
Assay [1] addresses T1, human MMP-9 (amino acids 107-446) (Homo sapiens, UniProt P14780).
T1 construct: human MMP-9 (amino acids 107-446); made in house
The assay is described as follows: MMP dose response assay for determining IC50, MMP-9. The procedure, abridged:
(§1)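 Recombinant enzymes in 50 mM HEPES pH 7.4, 10 mM CaCl2, 0.05% Brij-35, at empirically set levels keeping activity linear, preincubated 1 h at room temperature with compound in triplicate. Fluorescence-quench peptide substrate (Eu/QSY7) added at 100 nM final. Background-subtracted signal expressed as percent of DMSO control for IC50.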

Assay [2] has as its target T2, human MMP-2 (amino acids 1-660) (Homo sapiens, UniProt P08253).
T2 construct: human MMP-2 (amino acids 1-660); made in house
T2 sequence (P08253 110-660): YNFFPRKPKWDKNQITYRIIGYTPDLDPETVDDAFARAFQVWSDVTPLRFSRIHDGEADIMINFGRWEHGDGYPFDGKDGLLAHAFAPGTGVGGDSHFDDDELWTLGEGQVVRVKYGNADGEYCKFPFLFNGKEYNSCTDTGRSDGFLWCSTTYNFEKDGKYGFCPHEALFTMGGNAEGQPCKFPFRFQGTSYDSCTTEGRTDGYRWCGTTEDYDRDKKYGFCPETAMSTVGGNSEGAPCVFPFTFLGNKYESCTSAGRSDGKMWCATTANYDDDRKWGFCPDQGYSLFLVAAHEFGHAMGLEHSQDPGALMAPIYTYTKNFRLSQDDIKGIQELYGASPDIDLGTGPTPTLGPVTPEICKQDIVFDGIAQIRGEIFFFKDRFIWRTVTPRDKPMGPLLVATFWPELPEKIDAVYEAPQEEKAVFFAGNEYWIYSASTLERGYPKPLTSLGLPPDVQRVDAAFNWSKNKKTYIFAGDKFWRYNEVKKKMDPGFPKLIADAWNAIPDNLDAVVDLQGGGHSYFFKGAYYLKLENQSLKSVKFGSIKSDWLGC
The experiment in a line: MMP dose response assay for determining IC50, MMP-2. The following applies: recombinant enzyme, fluorescent-quench substrate 100 nM; read-out: MMP-2. The essentials: as §1

Assay [3] concerns the target T3, human MMP-1 (amino acids 100-262) (Homo sapiens, UniProt P03956).
T3 construct: human MMP-1 (amino acids 100-262); made in house
T3 sequence (P03956 100-262): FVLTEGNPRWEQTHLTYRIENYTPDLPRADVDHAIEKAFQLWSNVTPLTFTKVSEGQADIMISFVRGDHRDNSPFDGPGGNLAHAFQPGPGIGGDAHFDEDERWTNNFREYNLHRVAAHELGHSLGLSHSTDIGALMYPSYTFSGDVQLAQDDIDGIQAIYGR
The experiment in a line: MMP dose response assay for determining IC50, MMP-1. The following applies: recombinant catalytic domain, fluorescent-quench substrate 100 nM. Here is the method:
MMP Dose Response Assay for Determining IC50
The following method was used for determining IC50 values of different inhibitor compounds against multiple MMP enzymes. Frozen stocks of recombinantly produced MMPs were prepared in assay buffer (50 mM HEPES pH 7.4, 10 mM CaCl2, 0.05% Brij-35). […] Enzyme concentrations in the assay were determined empirically and set such that proteolytic activity was maintained in a linear range over the time-course of the experiment. […] Each concentration for each test compound was tested in triplicate. MMP enzymes were equilibrated with compounds for 1 hour at room temperature, then a fluorescent-quench substrate (Acetyl-Cys(Eu)-Pro-Leu-Gly-Leu-Lys-(QSY7)-Ala-Arg-amide) was added to a final concentration of 100 nM. […] Data was analyzed by first calculating average background value from wells that contained only substrate, and this value was subtracted from the entire plate. The 100%, or maximum value, was determined by averaging control wells that contained enzyme, substrate and DMSO. For each well, the percent of control was calculated by dividing the well value by the average DMSO value obtained above.

Setting [4] is: recombinant enzyme, fluorescent-quench substrate 100 nM, read-out: MMP-9.

Values joined by “and” are separate entries in the source; they are usually repeats but may differ in a detail not shown here. Identical values can stand only once. Like-named read-outs stand apart in the source and are kept apart here.

T1 sequence (P14780 107-446): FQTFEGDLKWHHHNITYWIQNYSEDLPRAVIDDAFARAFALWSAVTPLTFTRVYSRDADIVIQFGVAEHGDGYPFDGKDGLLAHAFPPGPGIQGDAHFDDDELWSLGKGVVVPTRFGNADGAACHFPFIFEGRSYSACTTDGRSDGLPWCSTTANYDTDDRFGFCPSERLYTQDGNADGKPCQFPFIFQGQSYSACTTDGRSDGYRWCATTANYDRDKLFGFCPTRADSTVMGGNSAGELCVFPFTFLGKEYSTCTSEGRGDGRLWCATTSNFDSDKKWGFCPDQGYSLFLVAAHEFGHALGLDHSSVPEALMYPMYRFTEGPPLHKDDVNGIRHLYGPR

As to `CC(C)N(Cc1ccccc1)[C@@H](CN(c1ccc(Oc2ccc(C(F)(F)F)cc2)cc1)S(C)(=O)=O)C(=O)NO` [Example 69, N-Hydroxy (2S)-2-[N-benzyl-N-(2-propyl)amino]-3-{N-[4-(4-trifluoromethylphenoxy)phenyl],N-methanesulfonylamino}propionamide], the IC50 is 67.5 nM in assay [1] (setting [4]), 0.281 µM in assay [2] and above 10 µM in assay [3].

Turning to `Cc1ccc(Oc2ccc(N(C[C@H](NCc3cccnc3)C(=O)NO)S(C)(=O)=O)cc2)cc1` [Example 35, N-Hydroxy (2S)-3-{N-[4-(4-methylphenoxy)phenyl],N-methanesulfonylamino}-2-(pyridine-3-yl)methylaminopropionamide], the IC50 in assay [1] (setting [4]) is 2.84 nM; in assay [2], 0.0168 µM; in assay [3], above 10 µM.

On to `Cc1ccc(Oc2ccc(N(C[C@H](NC(=O)C(C)C)C(=O)NO)S(C)(=O)=O)cc2)cc1` [Example 4, N-Hydroxy (2S)-3-{N-[4-(4-methylphenoxy)phenyl],N-methanesulfonylamino}-2-(2-propylcarbonylamino)propionamide], for which the IC50 in assay [1] (setting [4]) was 4.89 nM and 6 nM; in assay [2], 0.053 µM and 0.0867 µM; in assay [3] it was above 10 µM.

`Cc1ccc(Oc2ccc(N(C[C@H](Nc3cccc(C(F)(F)F)c3)C(=O)NO)S(C)(=O)=O)cc2)cc1` [Example 45, N-Hydroxy (2S)-3-{N-[4-(4-methylphenoxy)phenyl],N-methanesulfonylamino}-2-(3-trifluorormethylphenyl)aminopropionamide]: the values for the IC50 in assay [1] (setting [4]), in assay [2] and in assay [3] were 58.3 nM, 0.682 µM and 6 µM, respectively.

For the compound `CS(=O)(=O)N(C[C@@H](C(=O)NO)N1Cc2ccccc2C1)c1ccc(Oc2ccc(C(F)(F)F)cc2)cc1` [Example 72, N-Hydroxy (2S)-2-(isoindolin-2-yl)-3-{N-[4-(4-trifluoromethylphenoxy)phenyl],N-methanesulfonylamino}propionamide], the IC50 in assay [1] (setting [4]) was 0.72 nM and 0.17 nM; in assay [2], 0.00376 µM and 0.00102 µM; in assay [3] it was above 10 µM.

For `Cc1ccc(Oc2ccc(N(C[C@H](O)C(=O)NO)S(=O)(=O)Cc3cccnc3)cc2)cc1` [Example 32, N-Hydroxy (2S)-2-hydroxy-3-{N-[4-(4-methylphenoxy)phenyl],N-(pryidin-3-yl)methylsulfonylamino}propionamide], the IC50 is 68.7 nM in assay [1] (setting [4]), 0.401 µM in assay [2] and above 10 µM in assay [3].

`Cc1ccc(Oc2ccc(N(C[C@@H](NC(C)C)C(=O)NO)S(C)(=O)=O)cc2)cc1` [Example 24, N-Hydroxy (2R)-3-{N-[4-(4-methylphenoxy)phenyl],N-methanesulfonylamino}-2-(2-propyl)aminopropionamide]: the IC50 was 37.8 nM and 24.9 nM in assay [1] (setting [4]); 0.187 µM and 0.168 µM in assay [2]; above 10 µM in assay [3].

For `Cc1ccc(Oc2ccc(N(CC(C)(O)C(=O)NO)S(C)(=O)=O)cc2)cc1` (stereo not drawn) [Example 6, N-Hydroxy 2-hydroxy-2-methyl-3-{N-[4-(4-methylphenoxy)phenyl],N-methanesulfonylamino}propionamide], the IC50 in assay [1] (setting [4]) was 7.4 nM and 7.76 nM and 7.44 nM and 4.82 nM and 2.17 nM and 3.57 nM; in assay [2], 0.0191 µM and 0.0226 µM and 0.0297 µM and 0.0166 µM and 0.0189 µM and 0.0145 µM; in assay [3] it was 5.57 µM.

On to `CS(=O)(=O)N(C[C@@H](C(=O)NO)N1CCNC(=O)C1)c1ccc(Oc2ccc(C(F)(F)F)cc2)cc1` [Example 87, N-Hydroxy (2S)-2-(3-oxopiperazin-1-yl)-3-{N-[4-(4-trifluoromethylphenoxy)phenyl],N-methanesulfonylamino}propionamide], for which the IC50 in assay [1] (setting [4]) is 7.94 nM; in assay [2], 0.0198 µM; in assay [3] it was above 10 µM.

With `CS(=O)(=O)N(C[C@H](O)C(=O)NO)c1ccc(C#Cc2ccc(Cl)cc2)cc1` [Example 62, N-Hydroxy (2S)-2-hydroxy-3-{N-[4-(4-chlorophenylacetylene)phenyl],N-methanesulfonylamino}propionamide], the IC50 was 47.3 nM in assay [1] (setting [4]), 0.0562 µM in assay [2] and above 10 µM in assay [3].

As for `Cc1ccc(Oc2ccc(N(C[C@H](O)C(=O)NO)S(=O)(=O)Cc3ccncc3)cc2)cc1` [Example 31, N-Hydroxy (2S)-2-hydroxy-3-{N-[4-(4-methylphenoxy)phenyl],N-(pryidin-4-yl)methylsulfonylamino}propionamide], the results for the IC50 in assay [1] (setting [4]), in assay [2] and in assay [3] were 54.2 nM, 0.344 µM and above 10 µM, respectively.

For `Cc1ccc(Oc2ccc(N(C[C@H](NCc3ccncc3)C(=O)NO)S(C)(=O)=O)cc2)cc1` [Example 33, N-Hydroxy (2S)-3-{N-[4-(4-methylphenoxy)phenyl],N-methanesulfonylamino}-2-(pyridine-4-yl)methylaminopropionamide], the values for the IC50 in assay [1] (setting [4]), in assay [2] and in assay [3] were 1.77 nM, 0.00953 µM and above 10 µM, respectively.

Turning to `Cc1ccc(Oc2ccc(N(C[C@H](C(=O)NO)N3CCOCC3)S(C)(=O)=O)cc2)cc1` [Example 28, N-Hydroxy (2R)-3-{N-[4-(4-methylphenoxy)phenyl],N-methanesulfonylamino}-2-(morpholin-4-yl)propionamide], the IC50 in assay [1] (setting [4]) was 295 nM; in assay [2] it was 1.32 µM; in assay [3], above 10 µM.

With `CS(=O)(=O)N(C[C@@H](C(=O)NO)N1CCC(O)(c2ccc(Br)cc2)CC1)c1ccc(Oc2ccc(C(F)(F)F)cc2)cc1` [Example 79, N-Hydroxy (2S)-2-[4-(4-bromophenyl)-4-hydroxypiperidin-1-yl]-3-{N-[4-(4-trifluoromethylphenoxy)phenyl],N-methanesulfonylamino}propionamide], the IC50 in assay [1] (setting [4]) was 37.1 nM; in assay [2], 0.0389 µM; in assay [3] it was above 10 µM.

In the case of `CO[C@H](CN(c1ccc(Oc2ccc(C)cc2)cc1)S(C)(=O)=O)C(=O)NO` [Example 17, N-Hydroxy (2R)-2-methoxy-3-{N-[4-(4-methylphenoxy)phenyl],N-methanesulfonylamino}propionamide], the IC50 in assay [1] (MMP-9 (nM)) is 12.7 nM; in assay [2] it was 0.101 µM; in assay [3], above 10 µM.

Take `CS(=O)(=O)N1CCN([C@@H](CN(c2ccc(Oc3ccc(C(F)(F)F)cc3)cc2)S(C)(=O)=O)C(=O)NO)CC1` [Example 83, N-Hydroxy (2S)-2-(4-methanesulfonylpiperazin-1-yl)-3-{N-[4-(4-trifluoromethylphenoxy)phenyl],N-methanesulfonylamino}propionamide]: the IC50 in assay [1] (setting [4]) was 1.94 nM and 4.5 nM; in assay [2], 0.00621 µM and 0.0135 µM; in assay [3] it was above 10 µM.

With `Cc1ccc(Oc2ccc(N(C[C@H](Nc3ccc4[nH]ccc4c3)C(=O)NO)S(C)(=O)=O)cc2)cc1` [Example 40, N-Hydroxy (2S)-2-(indol-5-yl)amino-3-{N-[4-(4-methylphenoxy)phenyl],N-methanesulfonylamino}propionamide], the IC50 in assay [1] (setting [4]) was 1 nM and 0.64 nM; in assay [2], 0.0308 µM and 0.0147 µM; in assay [3] it was 6.41 µM and 8.83 µM.

In the case of `CS(=O)(=O)N(C[C@@H](C(=O)NO)N1CCC(O)CC1)c1ccc(Oc2ccc(C(F)(F)F)cc2)cc1` [Example 71, N-Hydroxy (2S)-2-(4-hydroxypiperidin-1-yl)-3-{N-[4-(4-trifluoromethylphenoxy)phenyl],N-methanesulfonylamino}propionamide], the IC50 in assay [1] (setting [4]) is 0.66 nM and 1.45 nM and 3.56 nM; in assay [2], 0.00157 µM and 0.00493 µM and 0.0107 µM; in assay [3], 8.55 µM and > 10 µM.

Regarding `Cc1ccc(Oc2ccc(N(C[C@H](N)C(=O)NO)S(C)(=O)=O)cc2)cc1` [Example 29, N-Hydroxy (2S)-2-amino-3-{N-[4-(4-methylphenoxy)phenyl],N-methanesulfonylamino}propionamide], the results for the IC50 in assay [1] (setting [4]), in assay [2] and in assay [3] were 120 nM, 0.67 µM and above 10 µM, respectively.
